Experimental data taken from ChEMBL document CHEMBL1129225, “Synthesis of 11,13-bridged progestational steroids” (1997).
Activity calls are given as the source filed them. The calls are words filed in the database; no cut-off is given here.

What follows are molecules tested against T1, Progesterone receptor (Homo sapiens) (UniProt P06401) (assay: Relative binding affinity to progesterone receptor of MCF-7 cytosol; No competitive binding).
T1 sequence (whole entry): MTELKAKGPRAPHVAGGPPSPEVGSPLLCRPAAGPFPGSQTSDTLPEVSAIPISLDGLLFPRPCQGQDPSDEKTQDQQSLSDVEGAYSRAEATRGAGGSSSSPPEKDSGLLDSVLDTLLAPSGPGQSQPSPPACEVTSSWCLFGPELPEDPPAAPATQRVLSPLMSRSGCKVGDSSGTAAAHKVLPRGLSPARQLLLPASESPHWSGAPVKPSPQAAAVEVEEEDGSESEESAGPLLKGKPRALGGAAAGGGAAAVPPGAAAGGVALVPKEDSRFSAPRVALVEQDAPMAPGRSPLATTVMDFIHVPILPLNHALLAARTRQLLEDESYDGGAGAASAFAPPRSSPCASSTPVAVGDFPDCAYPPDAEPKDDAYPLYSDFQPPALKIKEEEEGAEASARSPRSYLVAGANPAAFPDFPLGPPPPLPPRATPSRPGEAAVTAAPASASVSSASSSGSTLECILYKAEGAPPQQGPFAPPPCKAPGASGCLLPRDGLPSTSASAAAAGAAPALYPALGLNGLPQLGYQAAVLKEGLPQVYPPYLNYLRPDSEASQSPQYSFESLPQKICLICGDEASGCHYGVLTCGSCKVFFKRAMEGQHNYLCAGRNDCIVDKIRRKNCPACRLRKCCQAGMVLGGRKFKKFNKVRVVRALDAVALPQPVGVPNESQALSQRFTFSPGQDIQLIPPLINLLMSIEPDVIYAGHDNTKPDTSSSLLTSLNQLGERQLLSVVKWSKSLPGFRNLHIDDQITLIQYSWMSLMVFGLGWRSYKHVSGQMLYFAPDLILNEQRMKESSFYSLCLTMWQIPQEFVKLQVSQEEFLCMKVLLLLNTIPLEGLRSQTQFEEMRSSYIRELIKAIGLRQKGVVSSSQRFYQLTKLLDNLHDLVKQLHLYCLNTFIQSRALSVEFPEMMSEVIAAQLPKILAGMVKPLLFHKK
For `C#C[C@]1(O)CCC2C3CCC4=CC(=O)CCC4C3[C@@H]3C[C@@]21CO3` (stereo partly specified), the “relative binding affinity (RBA)” value was “inactive”.

These molecules were tested on Oryctolagus cuniculus (assay: In vivo activity using McPhail test after oral dose).
Type: functional
With `C#C[C@]1(O)CCC2C3CCC4=CC(=O)CCC4C3[C@@H]3C[C@@]21CO3` (stereo partly specified) the ED2 was >4 mg/kg.
For `C#C[C@]1(O)CCC2C3CCC4=CC(=O)CCC4C3[C@H]3CC[C@]21C3` (stereo partly specified), the ED2 was 0.032 mg/kg.
With `C#C[C@]1(O)CCC2C3CCC4=CC(=O)CCC4C3[C@H]3C=C[C@]21C3` (stereo partly specified) the ED2 was >0.125 mg/kg.
Molecule `C#C[C@]1(O)CCC2C3CCC4=CC(=O)CCC4C3[C@@H](C)CC21C` (stereo partly specified) has an ED2 of 0.015 mg/kg.
In the case of `C#C[C@]1(O)CC[C@H]2[C@@H]3CCC4=CC(=O)CC[C@@H]4[C@H]3CC[C@@]21C` [NORETHINDRONE], the ED2 is reported as 0.5 mg/kg.
